Assay [1] deals with AB5075. The assay can be described thus: Broth microdilution clarithromycin (CLR) potentiation and dose-response of adjuvant. Format: cell-based, Acinetobacter baumannii. On the procedure:
(§1) Bacterial Strains and Antimicrobial Agents. Acinetobacter baumannii clinical isolate 5075 was obtained from Dr. Colin Manoil at the University of Washington. Colonies were grown on lysogeny broth (LB) agar. Cation-adjusted Mueller-Hinton Broth (CAMHB) (catalog number 212322) were purchased from BD Diagnostics. LB broth was purchased from Fisher Scientific (catalog number BP9722-2). […] Colistin sulfate salt (catalog number C4461) was purchased from Sigma Aldrich. All assays were completed in duplicate and repeated at least two separate times. All compounds were dissolved as their HCl salts in molecular biology grade DMSO as 10 or 100 mM stock solutions and stored at −20° C. Colistin was dissolved in sterile water while clarithromycin was dissolved in molecular biology grade DMSO.
Broth microdilution method for antibiotic potentiation. Day cultures (6 h) of bacteria in CAMHB were subcultured to 5×10^5 CFU/mL in CAMHB. Aliquots (4 mL) were placed in culture tubes and dosed with compound from 10 mM stock samples to give the desired concentration of the compound to be tested against the particular bacterial strain; this insured non-toxic DMSO concentrations ≤0.3% in each well. 1 mL of the resulting solution was placed in a separate culture and dosed with antibiotic at the highest concentration to be tested. Bacteria treated with antibiotic alone served as the control. Row one of a 96-well plate was filled with 200 μL of the antibiotic/2-AI solution, and rows 2-12 were filled with 100 μL each of the remaining 4 mL of bacterial subculture containing adjuvant at the desired concentration, except for the control lane which contained only bacterial subculture. Row one was then mixed five times, and 100 μL was transferred to row two, which was then mixed five times before being transferred to row three. This process was repeated until all rows had been mixed, except for row twelve which would have only 2-AI to serve as a control to monitor potential toxicity. The 96-well plate was then covered in Glad Press n'Seal and incubated under stationary conditions at 37° C. for 16 h. MIC values were determined as the lowest concentration at which no bacterial growth was observed, and fold reductions were determined by comparison to antibiotic control lane.
Dose-response of Adjuvant Assay. The procedure for ‘broth microdilution method for antibiotic potentiation’ was followed using 4 mL aliquots of adjuvant at various concentrations: 0, 5, 7.5, 10, 15, 20, 25, and 30 μM.

The test system of assay [2] is AB5075. The assay can be described thus: Broth microdilution MIC of compound alone (standalone toxicity). It counts as cell-based, Acinetobacter baumannii. On the procedure:
as §1
Broth microdilution method for MIC determination. Day cultures (6 h) of each bacterial strain in cation adjusted Mueller Hinton II broth (CAMHB, Fisher Scientific U.S.) were subcultured to 5×10^5 CFU/mL in CAMHB. Aliquots (1 mL) were placed in culture tubes and compound was added from 10 mM stock samples in DMSO, such that compound concentration equaled highest concentration tested (200 μM). Samples were then aliquoted (200 μL) into the first wells of a 96-well plate, with all remaining wells being filled with 100 μL of initial bacterial subculture. Row one wells were mixed five times, before 100 μL was transferred to row two. Row two was then mixed five times, and 100 μL was transferred to row three. This process was repeated until the final row had been mixed; this served to serially dilute the compound. Plates were then covered with GLAD Press n'Seal and incubated under stationary conditions at 37° C. for 16 h. MIC values were then recorded as the lowest concentration at which no bacterial growth was observed.

Some results are limits rather than exact numbers.

On to `Cc1cc(-c2c[nH]c(N)n2)ccc1NC(=O)c1cc(Cl)cc(Cl)c1.Cl` [Compound 10a, N-(4-(2-amino-1H-imidazol-4-yl)-2-methylphenyl)-3,5-dichlorobenzamide hydrochloride], for which the “CLR MIC” value is 16 µg/mL in the assay with AB5075 [1] (compound tested at 10 μM), 1 µg/mL in the assay on AB5075 [1] (compound tested at 20 μM) and 0.5 µg/mL in the assay with AB5075 [1] (compound tested at 30 μM). Moreover, the “Fold Reduction of CLR MIC” value with AB5075 [1] (compound tested at 20 μM) amounted to 32 fold; with AB5075 [1] (compound tested at 30 μM), 64 fold. Further, the MIC in the assay with AB5075 [2] (Acinetobacter baumannii) was > 200 µM.
As for `Cl.Nc1nc(-c2ccc(NC(=O)c3cc(Cl)cc(Cl)c3)c(Cl)c2)c[nH]1` [Compound 10b, N-(4-(2-amino-1H-imidazol-4-yl)-2-chlorophenyl)-3,5-dichlorobenzamide hydrochloride], in the assay on AB5075 [1] (compound tested at 30 μM), the “CLR MIC” value came to 16 µg/mL. In the assay with AB5075 [2] (Acinetobacter baumannii), the MIC is > 200 µM.
In the case of `Cl.Nc1nc(-c2ccc(NC(=O)c3cc(Cl)cc(Cl)c3)c(F)c2)c[nH]1` [Compound 10c, N-(4-(2-amino-1H-imidazol-4-yl)-2-fluorophenyl)-3,5-dichlorobenzamide hydrochloride], in the assay with AB5075 [1] (compound tested at 30 μM), the “CLR MIC” value stood at 8 µg/mL. Also, the minimum inhibitory concentration (MIC) in the assay with AB5075 [2] (Acinetobacter baumannii) was > 200 µM.
As to `Cl.Nc1nc(-c2ccc(NC(=O)c3cc(Cl)cc(Cl)c3)cc2F)c[nH]1` [Compound 10d, N-(4-(2-amino-1H-imidazol-4-yl)-3-fluorophenyl)-3,5-dichlorobenzamide hydrochloride], the “CLR MIC” value in the assay on AB5075 [1] (compound tested at 5 μM) was determined as 8 µg/mL; in the assay on AB5075 [1] (compound tested at 7.5 μM), 4 µg/mL; with AB5075 [1] (compound tested at 10 μM), 0.5 µg/mL; in the assay on AB5075 [1] (compound tested at 20 μM), 0.25 µg/mL; in the assay on AB5075 [1] (compound tested at 30 μM, hydrochloride), 0.25 µg/mL. Further, the “Fold Reduction of CLR MIC” value with AB5075 [1] (compound tested at 5 μM) is on record as 4 fold; in the assay on AB5075 [1] (compound tested at 10 μM) it was 64 fold; with AB5075 [1] (compound tested at 20 μM), 128 fold. Further, in the assay with AB5075 [2] (Acinetobacter baumannii), the MIC is > 200 µM.
With `Cl.Nc1nc(-c2ccc(NC(=O)c3cc(Cl)cc(Cl)c3)cc2Cl)c[nH]1` [Compound 10e, N-(4-(2-amino-1H-imidazol-4-yl)-3-chlorophenyl)-3,5-dichlorobenzamide hydrochloride], the “CLR MIC” value in the assay with AB5075 [1] (compound tested at 10 μM) was 8 µg/mL; in the assay with AB5075 [1] (compound tested at 20 μM), 0.5 µg/mL; in the assay on AB5075 [1] (compound tested at 30 μM), 0.5 µg/mL. In addition, the “Fold Reduction of CLR MIC” value in the assay with AB5075 [1] (compound tested at 20 μM) and with AB5075 [1] (compound tested at 30 μM) was 64 fold each time. Moreover, the MIC in the assay on AB5075 [2] (Acinetobacter baumannii) is > 200 µM.
On to `Cl.Nc1nc(-c2ccc(NC(=O)c3cc(Br)cc(Br)c3)cc2F)c[nH]1` [Compound 15a, N-(4-(2-amino-1H-imidazol-4-yl)-3-fluorophenyl)-3,5-dibromobenzamide hydrochloride], for which the “CLR MIC” value in the assay on AB5075 [1] (compound tested at 10 μM) was 16 µg/mL; with AB5075 [1] (compound tested at 20 μM) it was 8 µg/mL; in the assay with AB5075 [1] (compound tested at 30 μM), 2 µg/mL. Further, the “Fold Reduction of CLR MIC” value with AB5075 [1] (compound tested at 10 μM) is 2 fold; in the assay on AB5075 [1] (compound tested at 20 μM), 4 fold; in the assay on AB5075 [1] (compound tested at 30 μM), 16 fold. The results for the MIC with AB5075 [2] (Acinetobacter baumannii) and with AB5075 [2] (hydrochloride) were > 200 µM and >200 µM, respectively.
For the compound `Cl.Nc1nc(-c2ccc(NC(=O)c3ccc(C(F)(F)F)c(Cl)c3)cc2F)c[nH]1` [Compound 17a, N-(4-(2-amino-1H-imidazol-4-yl)-3-fluorophenyl)-3-chloro-4-(trifluoromethyl)benzamide hydrochloride], the “CLR MIC” value in the assay on AB5075 [1] (compound tested at 7.5 μM) came to 16 µg/mL; in the assay on AB5075 [1] (compound tested at 10 μM), 8 µg/mL; in the assay with AB5075 [1] (compound tested at 15 μM), 0.25 µg/mL. Besides, the “Fold Reduction of CLR MIC” value in the assay with AB5075 [1] (compound tested at 10 μM) is on record as 4 fold; in the assay on AB5075 [1] (compound tested at 15 μM), 128 fold. Besides, the minimal inhibitory concentration (MIC) in the assay on AB5075 [2] (Acinetobacter baumannii) came to 50 µM.
With `Cl.Nc1nc(-c2ccc(NC(=O)c3ccc(Cl)c(C(F)(F)F)c3)cc2F)c[nH]1` [Compound 17b, N-(4-(2-amino-1H-imidazol-4-yl)-3-fluorophenyl)-4-chloro-3-(trifluoromethyl)benzamide hydrochloride], the “CLR MIC” value turned out to be 8 µg/mL in the assay with AB5075 [1] (compound tested at 7.5 μM), 2 µg/mL in the assay on AB5075 [1] (compound tested at 10 μM) and 0.25 µg/mL with AB5075 [1] (compound tested at 15 μM). Moreover, the “Fold Reduction of CLR MIC” value in the assay on AB5075 [1] (compound tested at 7.5 μM) was determined as 4 fold; in the assay on AB5075 [1] (compound tested at 10 μM) it was 16 fold; with AB5075 [1] (compound tested at 15 μM), 128 fold. For the same compound, the MIC in the assay with AB5075 [2] (Acinetobacter baumannii) is 50 µM.
For the compound `Cl.Nc1nc(-c2ccc(NC(=O)Nc3cc(Cl)cc(Cl)c3)cc2)c[nH]1` [Compound 20b, 1-(4-(2-amino-1H-imidazol-4-yl)phenyl)-3-(3,5-dichlorophenyl)urea hydrochloride], in the assay on AB5075 [1] (compound tested at 5 μM), the “CLR MIC” value is 8 µg/mL and the “Fold Reduction of CLR MIC” value is 4 fold. Moreover, in the assay on AB5075 [1] (compound tested at 7.5 μM), the “CLR MIC” value came to 0.5 µg/mL and the “Fold Reduction of CLR MIC” value was 64 fold. For the same compound, the minimal inhibitory concentration (MIC) in the assay with AB5075 [2] (Acinetobacter baumannii) is 25 µM.
For `Cl.Nc1nc(-c2ccc(NC(=O)Nc3ccc(Cl)c(Cl)c3)cc2)c[nH]1` [Compound 20c, 1-(4-(2-amino-1H-imidazol-4-yl)phenyl)-3-(3,4-dichlorophenyl)urea hydrochloride], the “CLR MIC” value is ≤ 0.0625 µg/mL in the assay on AB5075 [1] (compound dosed at higher concentrations (≥20 μM)); 8 µg/mL in the assay with AB5075 [1] (compound tested at 5 μM); 2 µg/mL in the assay on AB5075 [1] (compound tested at 7.5 μM); 0.25 µg/mL in the assay with AB5075 [1] (compound tested at 10 μM); ≤0.0625 µg/mL with AB5075 [1] (compound tested at 20 μM). Also, the “Fold Reduction of CLR MIC” value with AB5075 [1] (compound tested at 5 μM) is listed as 4 fold; in the assay with AB5075 [1] (compound tested at 7.5 μM), 16 fold; in the assay with AB5075 [1] (compound tested at 10 μM), 128 fold; in the assay on AB5075 [1] (compound tested at 20 μM) it was ≥512 fold. Besides, the minimal inhibitory concentration (MIC) with AB5075 [2] (Acinetobacter baumannii) stood at 100 µM.
